Data from ChEMBL document CHEMBL5244223, “l,8-Naphthalimide based DNA intercalators and anticancer agents. A systematic review from 2007 to 2017” (Eur J Med Chem, 2018).

Legend:
HCT-116 [1] = experiment: Cytotoxicity against human HCT-116 cells assessed as inhibition of cell growth incubated for 72 hrs by MTT assay; assay type: functional, cell-based; conditions: HCT-116, 72 h
Salmonella typhi = experiment: Antibacterial activity against Salmonella enterica subsp. enterica serovar Typhi assessed as inhibition of bacterial growth incubated for 24 hrs by two-fold serial dilution assay; assay type: functional
Bacillus subtilis = experiment: Antibacterial activity against Bacillus subtilis ATCC6633 assessed as inhibition of bacterial growth incubated for 24 hrs by two-fold serial dilution assay; assay type: functional
Proteus = experiment: Antibacterial activity against Proteus ATCC13315 assessed as inhibition of bacterial growth incubated for 24 hrs by two-fold serial dilution assay; assay type: functional
Micrococcus luteus = experiment: Antibacterial activity against Micrococcus luteus assessed as inhibition of bacterial growth incubated for 24 hrs by two-fold serial dilution assay; assay type: functional
Staphylococcus aureus [2] = experiment: Antibacterial activity against Staphylococcus aureus ATCC25923 assessed as inhibition of bacterial growth incubated for 24 hrs by two-fold serial dilution assay; assay type: functional
Pseudomonas aeruginosa = experiment: Antibacterial activity against Pseudomonas aeruginosa assessed as inhibition of bacterial growth incubated for 24 hrs by two-fold serial dilution assay; assay type: functional
Staphylococcus aureus [3] = experiment: Antibacterial activity against methicillin-resistant Staphylococcus aureus N315 assessed as inhibition of bacterial growth incubated for 24 hrs by two-fold serial dilution assay; assay type: functional
Escherichia coli = experiment: Antibacterial activity against Escherichia coli JM109 assessed as inhibition of bacterial growth incubated for 24 hrs by two-fold serial dilution assay; assay type: functional
SMMC-7721 [4] = experiment: Cytotoxicity against human SMMC-7721 cells assessed as inhibition of cell growth incubated for 48 hrs by MTT assay; assay type: functional, cell-based; conditions: SMMC-7721, 48 h
HepG2 = experiment: Cytotoxicity against human HepG2 cells assessed as inhibition of cell growth incubated for 48 hrs by MTT assay; assay type: functional, cell-based; conditions: HepG2, 48 h
HCT-116 [5] = experiment: Cytotoxicity against human HCT-116 cells assessed as inhibition of cell growth incubated for 48 hrs by MTT assay; assay type: functional, cell-based; conditions: HCT-116, 48 h
K562 = experiment: Cytotoxicity against human K562 cells assessed as inhibition of cell growth incubated for 48 hrs by MTT assay; assay type: functional, cell-based; conditions: K562, 48 h
SMMC-7721 [6] = experiment: Antiproliferative activity against human SMMC-7721 cells assessed as inhibition of cell proliferation incubated for 48 hrs by MTT assay; assay type: functional, cell-based; conditions: SMMC-7721, 48 h
MCF7 [7] = experiment: Antiproliferative activity against human MCF7 cells assessed as inhibition of cell proliferation incubated for 48 hrs by MTT assay; assay type: functional, cell-based; conditions: MCF7, 48 h
HeLa = experiment: Antiproliferative activity against human HeLa cells assessed as inhibition of cell proliferation incubated for 48 hrs by MTT assay; assay type: functional, cell-based
HCT-15 = experiment: Cytotoxicity against human HCT-15 cells assessed as inhibition of cell growth incubated for 24 hrs by sulforhodamine B assay; assay type: functional, cell-based; conditions: HCT-15, 24 h
Salmon testes DNA = experiment: Binding affinity to salmon Testis DNA assessed as equilibrium binding constant by steady-state fluorescence spectroscopic analysis; conditions: Salmo salar
Clupea harengus = experiment: Binding affinity to Atlantic herring DNA assessed as binding constant by fluorescence based EtBr-UV absorption spectral analysis
Jurkat = experiment: Antiproliferative activity against human Jurkat cells assessed as inhibition of cell proliferation incubated for 72 hrs by MTT assay; assay type: functional, cell-based
L02 = experiment: Antiproliferative activity against human HL7702 cells assessed as inhibition of cell proliferation incubated for 24 hrs by MTT assay; assay type: functional, cell-based; conditions: L02, 24 h
MCF7 [8] = experiment: Antiproliferative activity against human MCF7 cells assessed as inhibition of cell proliferation incubated for 24 hrs by MTT assay; assay type: functional, cell-based; conditions: MCF7, 24 h
BGC-823 = experiment: Antiproliferative activity against human BGC-823 cells assessed as inhibition of cell proliferation incubated for 24 hrs by MTT assay; assay type: functional, cell-based; conditions: BGC-823, 24 h

O=C1c2cccc3cccc(c23)C(=O)N1CCCN(CCCN(CCO)CCO)CCCN1C(=O)c2cccc3cccc(c23)C1=O showed an IC50 (HCT-116 [1]) of 0.82 µM.
O=C1c2cccc3c(Sc4nc5ccccc5n4Cc4cccc(Cl)c4)ccc(c23)C(=O)N1CCCCn1cncn1 was tested, and the MIC (Salmonella typhi) was greater than 512 mg/L, the MIC (Bacillus subtilis) was greater than 512 mg/L and the MIC (Proteus) was greater than 512 mg/L. For the same compound, the MIC (Micrococcus luteus) was greater than 512 mg/L, the MIC (Staphylococcus aureus [2]) was greater than 512 mg/L and the MIC (Pseudomonas aeruginosa) was greater than 512 mg/L. The MIC (Staphylococcus aureus [3]) was greater than 512 mg/L and the MIC (Escherichia coli) was greater than 512 mg/L.
Work on CCCCOC(=O)c1ccc2c3c(cccc13)C(=O)N(CCN(C)C)C2=O yielded an IC50 (SMMC-7721 [4]) greater than 50 µM, an IC50 (HepG2) greater than 50 µM and an IC50 (HCT-116 [5]) greater than 50 µM. It also gave an IC50 (K562) greater than 50 µM.
In the case of O=C1c2cccc3c(Sc4nc5ccccc5n4Cc4cccc(F)c4)ccc(c23)C(=O)N1CCCCn1cncn1, the MIC (Salmonella typhi) is reported as greater than 512 mg/L, the MIC (Bacillus subtilis) is reported as greater than 512 mg/L and the MIC (Proteus) is reported as greater than 512 mg/L. For the same compound, the MIC (Micrococcus luteus) was greater than 512 mg/L, the MIC (Staphylococcus aureus [2]) was greater than 512 mg/L and the MIC (Pseudomonas aeruginosa) was greater than 512 mg/L. The MIC (Staphylococcus aureus [3]) was greater than 512 mg/L and the MIC (Escherichia coli) was greater than 512 mg/L.
CCCCN1C(=O)c2cccc3cc(-n4ccnn4)cc(c23)C1=O was tested, and the IC50 (SMMC-7721 [6]) was 0.3 µM, the IC50 (MCF7 [7]) was 0.3 µM and the IC50 (HeLa) was 0.3 µM.
With NCCN1C(=O)c2cccc3cccc(c23)C1=O the IC50 (HCT-15) was 2.44 µM.
In the case of O=C1c2cccc3cccc(c23)C(=O)N1CC[n+]1ccccc1, the Kb (Salmon testes DNA) is reported as 2 10^4/M.
For NCCNCCCCCN1C(=O)c2cccc3cccc(c23)C1=O, the Kb (Clupea harengus) was 1.15 10^4/M.
With O=C1c2cccc3cccc(c23)C(=O)N1CCCCNCc1ccccn1 the IC50 (Jurkat) was 5.58 µM.
With CN(C)CCNCCCN1C(=O)c2cccc3cccc(c23)C1=O the Kb (Clupea harengus) was 1.15 10^4/M.
O=C1c2cccc3cc(-n4ccnn4)cc(c23)C(=O)N1CCN1CCNCC1 gave an IC50 (SMMC-7721 [6]) of 0.3 µM, an IC50 (MCF7 [7]) of 0.3 µM and an IC50 (HeLa) of 0.3 µM.
O=C1c2cccc3cccc(c23)C(=O)N1CCCNCCCN(CCO)CCO gave an IC50 (HCT-116 [1]) of 6.96 µM.
With NCCCNCCCCN1C(=O)c2cccc3cccc(c23)C1=O the Kb (Clupea harengus) was 1.15 10^4/M.
Work on CCN(CC)CCN1C(=O)c2cccc3cc(-n4ccnn4)cc(c23)C1=O yielded an IC50 (SMMC-7721 [6]) of 0.3 µM, an IC50 (MCF7 [7]) of 0.3 µM and an IC50 (HeLa) of 0.3 µM.
Work on O=C1c2cccc3cccc(c23)C(=O)N1CCCC/N=C/c1ccccn1 yielded an IC50 (Jurkat) of 5.58 µM.
CCN(CC)CCN1C(=O)c2cccc3c2c(cc2[nH]c(-c4c[nH]c5ccccc45)nc23)C1=O was tested, and the IC50 (L02) was 8.2 µM, the IC50 (MCF7 [8]) was 8.2 µM and the IC50 (BGC-823) was 8.2 µM.
Compound O=C1c2cccc3cccc(c23)C(=O)N1CCCCCC/N=C/c1ccccn1 has an IC50 (Jurkat) of 5.58 µM.
NCCCCN1C(=O)c2cccc3cccc(c23)C1=O gave an IC50 (HCT-15) of 2.44 µM.
Compound CCCCCCCCNN1C(=O)c2cccc3c2c(cc2[nH]c(-c4c[nH]c5ccccc45)nc23)C1=O has an IC50 (L02) of 0.7 µM, an IC50 (MCF7 [8]) of 0.7 µM and an IC50 (BGC-823) of 0.7 µM.
Work on O=C1c2cccc3cccc(c23)C(=O)N1CCCNCc1ccco1 yielded an IC50 (HCT-15) of 2.44 µM.
In the case of O=C1c2cccc3cccc(c23)C(=O)N1CCCCn1cc(-c2ccccc2)nn1, the IC50 (HCT-15) is reported as 2.44 µM.
In the case of O=C1c2cccc3cccc(c23)C(=O)N1CCCNCCCN(CCCl)CCCl, the IC50 (HCT-116 [1]) is reported as 1.4 µM.
CN(C)CCCN1C(=O)c2cccc3c2c(cc2[nH]c(-c4c[nH]c5ccccc45)nc23)C1=O showed an IC50 (L02) of 0.7 µM, an IC50 (MCF7 [8]) of 0.7 µM and an IC50 (BGC-823) of 0.7 µM.
Compound O=C1c2cccc3cccc(c23)C(=O)N1CCCN(CCCN(CCCl)CCCl)CCCN1C(=O)c2cccc3cccc(c23)C1=O has an IC50 (HCT-116 [1]) of 0.35 µM.
With O=C1c2cccc3cccc(c23)C(=O)N1CCNCc1ccccn1 the IC50 (Jurkat) was 5.58 µM.
O=C1c2cccc3c(Sc4nc5ccccc5n4Cc4ccc(Cl)cc4Cl)ccc(c23)C(=O)N1CCCCn1c[n+](Cc2ccccc2Cl)cn1 showed an MIC (Salmonella typhi) of 2 mg/L, an MIC (Bacillus subtilis) of 2 mg/L and an MIC (Proteus) of 2 mg/L. For the same compound, the MIC (Micrococcus luteus) was 2 mg/L, the MIC (Staphylococcus aureus [2]) was 2 mg/L and the MIC (Pseudomonas aeruginosa) was 2 mg/L. The MIC (Staphylococcus aureus [3]) was 2 mg/L and the MIC (Escherichia coli) was 2 mg/L.
With CCCCN1C(=O)c2cccc3cc(-n4cc(-c5ccccc5)nn4)cc(c23)C1=O the IC50 (SMMC-7721 [6]) was 0.3 µM, the IC50 (MCF7 [7]) was 0.3 µM and the IC50 (HeLa) was 0.3 µM.
For CCN(CC)CCN1C(=O)c2cccc3cc(-n4cc(-c5ccccc5)nn4)cc(c23)C1=O, the IC50 (SMMC-7721 [6]) was 0.3 µM, the IC50 (MCF7 [7]) was 0.3 µM and the IC50 (HeLa) was 0.3 µM.
For CCCCCOC(=O)c1ccc2c3c(cccc13)C(=O)N(CCN(C)C)C2=O, the IC50 (SMMC-7721 [4]) was greater than 50 µM, the IC50 (HepG2) was greater than 50 µM and the IC50 (HCT-116 [5]) was greater than 50 µM. It also gave an IC50 (K562) greater than 50 µM.
